Reference: patent US20050158264A1, “Sympathetic nerve-stimulating fragrant compositions” (SHISEIDO COMPANY, LTD., priority 2000, published 2005)
Where a name gives a salt, the structure may show the parent alone.

These compounds were tested on uncoupling protein-3 (assay: not given). Settings: 70 mg subcutaneous tissue from 6-week-old rats; caffeine 1 mM, noradrenaline 0.5 μg/ml; FIG. 6.

Q: Which “expression of uncoupling protein-3” value does the source give for `Cn1c(=O)c2c(ncn2C)n(C)c1=O` [caffeine] here?
A: The value was “increased expression”.

Each compound was assayed on sympathetic nerves (assay: Measurement of sympathetic nerve activity by systolic blood pressure fluctuation analysis (FLUCLET) while smelling fragrance). Settings: subjects smelling fragrance 3 minutes vs 3 minutes without fragrance, FIG. 1-4.
Format: in vivo
From the text: Cardiac rate intervals (heartbeat intervals) and blood pressure changes (fluctuations) are complex even during resting periods, and are governed by several systems including the sympathetic and parasympathetic nervous systems. It is known that frequency analysis of heartbeat intervals and blood pressure fluctuations can used to calculate the activity of each of these systems. The high-frequency component of cardiac rate fluctuation indicates parasympathetic nerve activity while the low-frequency component indicates the combined activity of the sympathetic and parasympathetic nervous systems, and the low-frequency component of blood pressure fluctuation indicates sympathetic nerve activity (from material by Dainippon Pharmaceutical Co.). Sympathetic nerve activity was measured by analysis of systolic blood pressure fluctuation using an autonomic nervous system activity analysis system (FLUCLET, product of Dainippon Pharmaceutical Co.). Subjects were allowed to rest for 5 minutes in a thermostatic room at room temperature (24° C.), the blood pressure value was measured on the upper arm and used to correct the blood pressure value at the wrist, and then the wrist blood pressure was continuously measured thereafter. Cotton was placed under the nostrils at the start of measurement, the blood pressure was measured for 3 minutes without fragrant substance, and then the nose cotton was impregnated with fragrant substance and the blood pressure was measured for 3 minutes.

Q: `CCOC(=O)CC(O)(CC(=O)OCC)C(=O)OCC` [TEC, triethyl citrate, reference compound] was tested. Which “effect of fragrance on relative sympathetic nerve activity (in words)” value did it give?
A: The value was “no change”.

Q: With `O=C(OCc1ccccc1)c1ccccc1` [benzyl benzoate] as the compound, how does the “effect of fragrance on relative sympathetic nerve activity (in words)” value read?
A: The value was “increased effect of sympathetic nerve activity”.

Q: For `C=C(C)[C@H]1CC=C(C)CC1` [limonene], which “effect of fragrance on relative sympathetic nerve activity (in words)” value is on record?
A: The value was “increased effect of sympathetic nerve activity”.

Q: Which “effect of fragrance on relative sympathetic nerve activity (in words)” value does the source give for `C=CC(=C)CCC=C(C)C` [myrcene] here?
A: Its value is “increased effect of sympathetic nerve activity”.

Q: With pinene as the compound, how does the “effect of fragrance on relative sympathetic nerve activity (in words)” value read?
A: The value was “increased effect of sympathetic nerve activity”.
